In patent US5736384A (priority 1994, dated 1998):
Entries after “also recorded” stand apart in the source; their conditions may differ. Read-outs that look alike come from different tables or passages of the source.

Tests used:
[1] = system: XP1; assay: Effects of metal salts on enzyme activity of XP1; assay type: biochemical, Bacillus sp. 2113; settings: metal salt 1 mM, 4° C. overnight, also 1 mM in reaction mixture; None = 100
Procedure: (§1) Various metal salts were added to each of the enzyme solutions to a concentration of 1 mM and retained at 4° C. overnight. Then, a metal salt of the same kind was also added to a reaction mixture to a concentration of 1 mM, and the enzyme activities of XP1 and XP2 were determined.

[2] = system: XP2; assay: Effects of metal salts on enzyme activity of XP2; assay type: biochemical, Bacillus sp. 2113; settings: for Relative Activity(%) XP2: metal salt 1 mM, 4° C. overnight, also 1 mM in reaction mixture, None = 100; for inhibition of XP2 by metal ion (in words): 1 mM
Procedure: as §1

[3] = system: XP1; assay: biochemical; assay type: biochemical, Bacillus sp. 2113; settings: inhibitor 1 mM, 4° C. overnight, also 1 mM in reaction mixture, None = 100; for activity at 1000 µM: read-out: Relative Activity(%) XP1
Procedure: (§2) Various inhibitors and the like were added to each of the enzyme solutions to a concentration of 1 mM and retained at 4° C. overnight. Then, the same substance was also added to a reaction mixture to a concentration of 1 mM, and the enzyme activities of XP1 and XP2 were determined.

[4] = system: XP2; assay type: biochemical, Bacillus sp. 2113
Procedure: as §2

[5] = target: T1, XP1 (Paenibacillus sp. DG-22, UniProt A4GG22); assay: biochemical; assay type: biochemical, Bacillus sp. 2113; settings: for activity at 1000 µM: read-out: Relative Activity(%) XP1
T1 sequence (A4GG22 29-211): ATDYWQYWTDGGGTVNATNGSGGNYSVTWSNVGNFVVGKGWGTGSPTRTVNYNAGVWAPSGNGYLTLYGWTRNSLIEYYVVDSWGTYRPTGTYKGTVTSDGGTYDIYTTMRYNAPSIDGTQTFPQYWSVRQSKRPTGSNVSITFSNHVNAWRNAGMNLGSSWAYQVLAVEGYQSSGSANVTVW
Procedure: as §2

[6] = target: T1, XP1; assay: Effects of metal salts on enzyme activity of XP1; assay type: biochemical, Bacillus sp. 2113; settings: 1 mM
T1 sequence (A4GG22 29-211): as above
Procedure: as §1

[7] = Action: thin-layer chromatography of reaction products from birch xylan; assay type: biochemical; settings: 1% birch xylan, pH 7.0, 60° C., 10 U enzyme, TLC
Procedure: To 5 ml of 1% birch xylan (Sigma) solution (pH 7.0, in 40 mM sodium phosphate buffer), 10 U of each of XP1 and XP2 was added and reacted at 60° C. After a certain reaction period, the reaction was terminated by boiling and 10 μl of the reaction mixture was subjected to thin-layer chromatography using HPTLC Kieselgel 60 F254 (Merk) as a thin layer and a mixture of n-butanol, acetic acid and water (10:5:1) as a developer. The coloring was carried out by spraying a diphenylamine-aniline reagent and heating at 120° C. for 10 minutes.
The number of minutes shown in this FIG. represents the reaction time of the enzyme.

[8] = Substrate specificity; assay type: biochemical
[9] = Optimum pH for reaction (enzyme activity measured at each pH); assay type: biochemical
Procedure: (§3) For each of the enzymes, the optimum pH and pH stability were determined by using glycine-HCl buffer (pH 3 or below), acetate buffer (pH 4-5), sodium phosphate buffer (pH 6-7), Tris-HCl buffer (pH 8-9) and glycine-NaOH buffer (pH 9.1-10.1). The enzyme activity of each xylanase was measured at each of the pH values.
(§4) Fifty microliters of a sample solution is added to 200 μl of 1% birch xylan (Sigma) solution (pH 6.5, in 1/10 McIlvaine buffer), and reacted at 70° C. for 5 minutes. Five hundreds microliters of DNS reagent is added thereto and boiled for 5 minutes. Then, the reaction mixture is immediately ice-cooled and 4 ml distilled water is added thereto. Thereafter, absorbance at 500 nm is measured. Calibration curves are prepared by using a xylose solution of known concentration.
(§5) As to the unit of xylanase activity, one unit (U) was defined as the amount of enzyme which releases […] of reducing sugar per minute under the above conditions.

[10] = pH stability (enzyme activity after two nights in buffer); assay type: physicochemical; settings: retained in 50 mM buffer for two nights
Procedure: as §3
In addition, each of the enzymes was retained in a certain 50 mM buffer for two nights and then the enzyme activity was determined.

[11] = Enzyme activity at different temperatures (optimum / appropriate temperature); assay type: biochemical
Procedure: as §4, §5
The enzyme activity of each enzyme was determined at different temperatures.

[12] = Thermostability (residual activity after 30 min at a certain temperature); assay type: physicochemical; settings: 50 mM Tris-HCl buffer (pH 7.2)
Procedure: In addition, after each enzyme was left in 50 mM Tris-HCl buffer (pH 7.2) for 30 minutes at a certain temperature, the enzyme activity was determined.

[13] = Determination of xylanase activity (DNS reducing sugar method); assay type: biochemical; settings: purified enzyme
Procedure: as §4, §5
Fifty microliters of the crude enzyme solution was added to 200 μl of 1% birch xylan (Sigma) solution (in 1/10 McIlvaine buffer, pH 6. 5), and reacted at 70° C. for 5 minutes.
After addition of DNS reagent (500 μl) and subsequent boiling for 5 minutes, the reaction mixture was immediately ice-cooled and 4 ml of distilled water was added thereto. Then, absorbance at 500 nm was measured. Calibration curves were prepared by using a xylose solution of known concentration.
As to the unit of xylanase activity, one unit (U) was defined as the amount of enzyme which releases 1 μmol of reducing sugar per minute under the above conditions. […]

[14] = inhibitor 1 mM, 4° C. overnight, also 1 mM in reaction mixture, None = 100

[Cl][Al]([Cl])[Cl] [AlCl3]
Relative Activity(%) XP1 [1]: 110% | Relative Activity(%) XP2 [2]: 100%

[Cl-].[Li+] [LiCl]
Relative Activity(%) XP1 [1]: 128% | Relative Activity(%) XP2 [2]: 99%

[Ba+2].[Cl-].[Cl-] [BaCl2]
Relative Activity(%) XP1 [1]: 137% | Relative Activity(%) XP2 [2]: 108%

[Cl-].[Rb+] [RbCl]
Relative Activity(%) XP1 [1]: 121% | Relative Activity(%) XP2 [2]: 98%

O[C@H](CS)[C@H](O)CS (racemic) [Dithiothreitol]
activity at 1000 µM [3]: 85% | Relative Activity(%) XP2 [4, 14]: 82%

CCCCCCCCCCCCOS(=O)(=O)O [SDS]
inhibition of XP1 by inhibitor (in words) ([5]; 1 mM): strongly inhibited | activity at 1000 µM [3]: 0% | inhibition of XP2 by inhibitor (in words) ([4]; 1 mM): strongly inhibited | Relative Activity(%) XP2 [4, 14]: 0%

[Cl][Cu][Cl] [CuCl2]
Relative Activity(%) XP1 [1]: 87% | inhibition of XP2 by metal ion (in words) [2]: weakly inhibited | Relative Activity(%) XP2 [2]: 68%

[Ca+2].[Cl-].[Cl-] [CaCl2]
Relative Activity(%) XP1 [1]: 106% | Relative Activity(%) XP2 [2]: 98%

[Cl-].[Cl-].[Mg+2] [MgCl2]
Relative Activity(%) XP1 [1]: 129% | Relative Activity(%) XP2 [2]: 103%

[Cl-].[Cl-].[Co+2] [CoCl2]
Relative Activity(%) XP1 [1]: 107% | inhibition of XP2 by metal ion (in words) [2]: weakly inhibited | Relative Activity(%) XP2 [2]: 70%

[Cl][Ni][Cl] [NiCl2]
Relative Activity(%) XP1 [1]: 129% | Relative Activity(%) XP2 [2]: 93%

O=C(O)CN(CCN(CC(=O)O)CC(=O)O)CC(=O)O [EDTA]
inhibition of XP1 by inhibitor (in words) [5]: weakly inhibited | activity at 1000 µM [5]: 59% | Relative Activity(%) XP2 [4]: 65% | inhibition of XP2 by inhibitor (in words) [4]: weakly inhibited

[Cl][Hg][Cl] [HgCl2]
inhibition of XP1 by metal ion (in words) [6]: strongly inhibited | Relative Activity(%) XP1 [1]: 24% | inhibition of XP2 by metal ion (in words) [2]: strongly inhibited | Relative Activity(%) XP2 [2]: 0%

[N-]=[N+]=[N-].[Na+] [NaN3]
Relative Activity(%) XP1 [3]: 96% | Relative Activity(%) XP2 [4, 14]: 109%

O=C(O)CI [Iodoacetic acid]
inhibition of XP1 by inhibitor (in words) [5]: weakly inhibited | activity at 1000 µM [5]: 75% | Relative Activity(%) XP2 [4]: 76% | inhibition of XP2 by inhibitor (in words) [4]: weakly inhibited

XP1: thermostable xylanase from Bacillus sp. 2113 culture, active fraction eluted earlier; amino acid sequence SEQ ID NO: 1
products formed upon acting on xylan [7]: xyloligosaccharides | substrate specificity [8]: act on prepared xylans such as birch xylan and oat spelt xylan, as well as xylan-containing materials such as hardwood kraft pulp and oat spelt bran; also recorded: acting on prepared xylans including birch xylan and oat spelt xylan, as well as xylan-containing materials including hardwood kraft pulp and oat spelt bran | optimum pH for reaction [9]: 5-8 | pH at which the xylanase is stable [10]: 3.0-9.0 | optimum temperature for reaction [11]: 70 °C | residual enzyme activity after 30 min treatment at 50° C. ([12]; 50° C.): ≥ 90% | residual enzyme activity after 30 min treatment at 60° C. ([12]; 60° C.): ≥ 50% | specific activity [13]: 1420 U/mg

O=S(=O)([O-])[O-].[Fe+2] [FeSO4]
Relative Activity(%) XP1 [1]: 165% | Relative Activity(%) XP2 [2]: 99%

[Cl][Mn][Cl] [MnCl2]
Relative Activity(%) XP1 [1]: 99% | inhibition of XP2 by metal ion (in words) [2]: weakly inhibited | Relative Activity(%) XP2 [2]: 74%
